Consider 31 molecules from ChEMBL document CHEMBL5614393, “Thioamides in medicinal chemistry and as small molecule therapeutic agents” (Eur J Med Chem, 2024).

What is called IC50 is the point on the concentration scale where inhibition reaches its midpoint. By GI50 is commonly meant the concentration that inhibits growth by half. One may read the half-life as the time in which the quantity being followed falls by half. One may read the EC50 as the concentration at which the effect is half-maximal. The term MIC50 denotes the lowest concentration that inhibits either 50% of growth or 50% of the strains tested, depending on the study. As usually defined, the inhibition is the percentage by which the read-out fell short of the control.

The structures appear in SMILES notation. Converted amounts (≈) assume the structure as drawn.

The nature of data set [1]: Inhibition of urease (unknown origin).
For data set [2], the target named is Carbonic anhydrase 1 (Homo sapiens, UniProt P00915). In words: Inhibition of human carbonic anhydrase I.
Sequence of Carbonic anhydrase 1 (P00915 whole entry): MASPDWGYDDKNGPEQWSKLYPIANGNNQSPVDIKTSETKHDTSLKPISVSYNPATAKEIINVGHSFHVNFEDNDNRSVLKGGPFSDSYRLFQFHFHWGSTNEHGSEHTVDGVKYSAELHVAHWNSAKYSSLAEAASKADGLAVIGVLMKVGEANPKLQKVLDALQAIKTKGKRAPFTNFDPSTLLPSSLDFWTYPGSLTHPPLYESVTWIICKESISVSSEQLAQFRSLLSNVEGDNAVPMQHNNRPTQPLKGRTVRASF
Data set [3] has as its target Carbonic anhydrase 2 (Homo sapiens, UniProt P00918). In words: Inhibition of human carbonic anhydrase II.
In data set [4] the test system is HCT-116. In words: Cytotoxicity against human HCT-116 cells assessed as reduction in cell growth incubated for 24 hrs by MTT assay. It is filed as functional, cell-based. Conditions: HCT-116, 24 h. (In general: Tetrazolium dyes change colour on reduction, which living cells bring about.)
Data set [5] deals with MCF7. Put plainly: Cytotoxicity against human MCF7 cells assessed as reduction in cell growth incubated for 24 hrs by MTT assay. It is filed as functional, cell-based. Conditions: MCF7, 24 h.
Data set [6] concerns MCF7. Put plainly: Cytotoxicity against human MCF7 cells assessed as reduction in cell viability incubated for 48 hrs by MTT assay. In kind it is functional, cell-based. As to conditions: MCF7, 48 h.
A short description of data set [7]: Antioxidant activity assessed as DPPH radical scavenging activity. In kind it is functional. (In general: The DPPH test is a chemical assay of radical scavenging.)
Data set [8] concerns HCT-116. In words: Growth inhibition of human HCT-116 cells by SRB assay. In kind it is functional.
Data set [9] deals with NAD-dependent protein deacetylase sirtuin-3, mitochondrial (Homo sapiens, UniProt Q9NTG7). In words: Inhibition of SIRT3 (unknown origin).
Sequence of NAD-dependent protein deacetylase sirtuin-3, mitochondrial (Q9NTG7 whole entry): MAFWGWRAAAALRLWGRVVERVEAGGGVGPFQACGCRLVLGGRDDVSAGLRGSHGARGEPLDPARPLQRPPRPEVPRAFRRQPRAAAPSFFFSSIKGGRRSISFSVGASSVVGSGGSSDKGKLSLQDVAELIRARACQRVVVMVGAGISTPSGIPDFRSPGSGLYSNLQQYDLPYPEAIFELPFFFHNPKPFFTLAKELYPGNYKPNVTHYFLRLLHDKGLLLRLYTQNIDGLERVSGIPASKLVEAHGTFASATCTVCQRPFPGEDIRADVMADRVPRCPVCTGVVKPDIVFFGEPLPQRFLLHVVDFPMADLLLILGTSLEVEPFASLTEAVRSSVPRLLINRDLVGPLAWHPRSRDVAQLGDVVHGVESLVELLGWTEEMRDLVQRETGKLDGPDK
Data set [10] addresses NAD-dependent protein deacylase sirtuin-5, mitochondrial (Homo sapiens, UniProt Q9NXA8). Put plainly: Inhibition of SIRT5 (unknown origin).
Data set [11] has as its target Epidermal growth factor receptor (Homo sapiens, UniProt P00533). In words: Inhibition of EGFR (unknown origin).
The subject of data set [12] is HepG2. In words: Antiproliferative activity against human HepG2 cells. In kind it is functional, cell-based.
Data set [13] has as its system MCF7. In words: Antiproliferative activity against human MCF7 cells. In kind it is functional, cell-based.
The subject of data set [14] is MDA-MB-231. In words: Antiproliferative activity against human MDA-MB-231 cells. It is filed as functional, cell-based.
Data set [15] deals with HCT-116. Put plainly: Antiproliferative activity against human HCT-116 cells. It is filed as functional, cell-based.
Data set [16] addresses T1, NAD-dependent protein deacetylase sirtuin-2 (Homo sapiens, UniProt Q8IXJ6).
T1 sequence (Q8IXJ6 whole entry): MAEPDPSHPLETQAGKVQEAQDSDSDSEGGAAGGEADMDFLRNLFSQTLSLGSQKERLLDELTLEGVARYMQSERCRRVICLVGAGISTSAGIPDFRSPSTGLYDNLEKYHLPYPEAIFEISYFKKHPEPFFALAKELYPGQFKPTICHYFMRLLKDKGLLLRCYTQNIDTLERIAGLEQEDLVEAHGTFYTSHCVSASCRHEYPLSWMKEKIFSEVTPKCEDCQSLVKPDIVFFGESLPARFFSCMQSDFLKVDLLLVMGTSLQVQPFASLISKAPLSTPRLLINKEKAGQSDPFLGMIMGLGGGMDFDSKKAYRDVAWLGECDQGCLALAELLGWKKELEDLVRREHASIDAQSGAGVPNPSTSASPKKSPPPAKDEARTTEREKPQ
In words: Inhibition of C-terminal His-tagged SIRT2 (50 to 356 residues) (unknown origin) using Ac-Glu-Thr-Asp-Lys(Myr)-AMC as substrate by fluorescence based analysis.

The nature of data set [17]: Half life in mouse. Conditions: in vivo. It is filed as ADME, organism-based.
Data set [18] concerns SARS-CoV-2. In words: Antiviral activity against SARS-CoV-2 infected in African green monkey Vero E6 cells incubated for 48 hrs by plaque reduction assay. In kind it is functional, organism-based. Conditions: Severe acute respiratory syndrome coronavirus 2, Vero C1008, 48 h.
Data set [19] relates to SiHa. In words: Antiproliferative activity against human SiHa cells overexpressing PHGDH assessed as reduction in cell growth. It is filed as functional, cell-based.
For data set [20], the system named is HL-60. In words: Antiproliferative activity against human HL-60 cells overexpressing PHGDH assessed as reduction in cell growth. In kind it is functional, cell-based.
Data set [21] relates to MDA-MB-231. Put plainly: Antiproliferative activity against human MDA-MB-231 cells overexpressing PHGDH assessed as reduction in cell growth. In kind it is functional, cell-based.
Data set [22] is described as follows: AUClast in mouse at 40 mg/kg, ip. In kind it is ADME, organism-based. Conditions: in vivo.
The subject of data set [23] is MCF7. Put plainly: Cytotoxicity against human MCF7 cells assessed as reduction in cell growth by MTT colorimetric assay. In kind it is functional, cell-based.
For data set [24], the system named is HepG2. Put plainly: Cytotoxicity against human HepG2 cells assessed as reduction in cell growth by MTT colorimetric assay. It is filed as functional, cell-based.
Data set [25] relates to PC-3. Put plainly: Cytotoxicity against human PC-3 cells assessed as reduction in cell growth by MTT colorimetric assay. In kind it is functional, cell-based.
Data set [26] has as its system Pseudomonas aeruginosa. Put plainly: Antibacterial activity against Pseudomonas aeruginosa ATCC 9027 assessed as reduction in bacterial cell growth incubated for 16 hrs by CLSI-based Mueller-Hinton broth dilution method. It is filed as functional. In general terms: In broth dilution the organism is exposed to a series of concentrations in liquid medium.
The test system of data set [27] is Staphylococcus aureus. Put plainly: Antibacterial activity against Staphylococcus aureus ATCC 6538 assessed as reduction in bacterial cell growth incubated for 16 hrs by CLSI-based Mueller-Hinton broth dilution method. In kind it is functional.
The subject of data set [28] is Staphylococcus epidermidis. Put plainly: Antibacterial activity against Staphylococcus epidermidis ATCC 12228 assessed as reduction in bacterial cell growth incubated for 16 hrs by CLSI-based Mueller-Hinton broth dilution method. It is filed as functional.
For data set [29], the system named is A549. Put plainly: Cytotoxicity against human A549 cells assessed as reduction in cell viability incubated for 24 hrs by MTT assay. It is filed as functional, cell-based. Conditions: A549, 24 h.
In data set [30] the test system is HeLa. In words: Cytotoxicity against human HeLa cells assessed as reduction in cell viability incubated for 24 hrs by MTT assay. In kind it is functional, cell-based.
Data set [31] addresses NAD-dependent protein deacetylase sirtuin-1 (Homo sapiens, UniProt Q96EB6). Put plainly: Inhibition of SIRT1 (unknown origin).
Data set [32] concerns the target T1, NAD-dependent protein deacetylase sirtuin-2. In words: Inhibition of SIRT2 (unknown origin).
Data set [33] is filed under the species Homo sapiens. In words: Inhibition of NOS (unknown origin) at 15.6 uM relative to control.

Sequence of NAD-dependent protein deacylase sirtuin-5, mitochondrial (Q9NXA8 whole entry): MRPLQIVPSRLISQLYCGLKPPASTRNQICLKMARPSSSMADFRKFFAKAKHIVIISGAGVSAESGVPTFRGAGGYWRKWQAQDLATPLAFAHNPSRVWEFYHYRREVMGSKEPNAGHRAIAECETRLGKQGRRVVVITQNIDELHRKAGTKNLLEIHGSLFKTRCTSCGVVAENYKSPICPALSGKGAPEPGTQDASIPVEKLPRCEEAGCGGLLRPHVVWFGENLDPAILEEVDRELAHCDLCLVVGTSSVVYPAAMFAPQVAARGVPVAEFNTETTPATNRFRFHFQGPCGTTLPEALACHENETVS
Sequence of NAD-dependent protein deacetylase sirtuin-1 (Q96EB6 whole entry): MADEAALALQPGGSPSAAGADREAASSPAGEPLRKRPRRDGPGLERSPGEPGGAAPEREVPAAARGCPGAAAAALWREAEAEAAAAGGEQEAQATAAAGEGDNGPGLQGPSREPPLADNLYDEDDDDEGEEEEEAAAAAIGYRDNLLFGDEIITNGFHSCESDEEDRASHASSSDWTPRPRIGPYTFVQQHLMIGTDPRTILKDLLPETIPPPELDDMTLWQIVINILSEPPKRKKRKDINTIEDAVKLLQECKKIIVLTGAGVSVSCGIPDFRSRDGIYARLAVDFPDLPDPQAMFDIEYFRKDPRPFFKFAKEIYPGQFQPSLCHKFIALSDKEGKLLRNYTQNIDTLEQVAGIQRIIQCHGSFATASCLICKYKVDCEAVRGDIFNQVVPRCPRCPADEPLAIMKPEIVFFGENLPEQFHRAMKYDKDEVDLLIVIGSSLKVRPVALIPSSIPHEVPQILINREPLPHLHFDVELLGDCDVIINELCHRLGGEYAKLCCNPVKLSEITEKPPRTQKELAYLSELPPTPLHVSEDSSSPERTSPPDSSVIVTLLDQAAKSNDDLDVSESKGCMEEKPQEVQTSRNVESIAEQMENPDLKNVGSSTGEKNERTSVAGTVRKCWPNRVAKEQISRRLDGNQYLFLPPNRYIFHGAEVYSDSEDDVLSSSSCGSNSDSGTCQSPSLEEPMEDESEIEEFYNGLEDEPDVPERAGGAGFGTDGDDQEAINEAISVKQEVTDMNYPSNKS
Sequence of Epidermal growth factor receptor (P00533 whole entry): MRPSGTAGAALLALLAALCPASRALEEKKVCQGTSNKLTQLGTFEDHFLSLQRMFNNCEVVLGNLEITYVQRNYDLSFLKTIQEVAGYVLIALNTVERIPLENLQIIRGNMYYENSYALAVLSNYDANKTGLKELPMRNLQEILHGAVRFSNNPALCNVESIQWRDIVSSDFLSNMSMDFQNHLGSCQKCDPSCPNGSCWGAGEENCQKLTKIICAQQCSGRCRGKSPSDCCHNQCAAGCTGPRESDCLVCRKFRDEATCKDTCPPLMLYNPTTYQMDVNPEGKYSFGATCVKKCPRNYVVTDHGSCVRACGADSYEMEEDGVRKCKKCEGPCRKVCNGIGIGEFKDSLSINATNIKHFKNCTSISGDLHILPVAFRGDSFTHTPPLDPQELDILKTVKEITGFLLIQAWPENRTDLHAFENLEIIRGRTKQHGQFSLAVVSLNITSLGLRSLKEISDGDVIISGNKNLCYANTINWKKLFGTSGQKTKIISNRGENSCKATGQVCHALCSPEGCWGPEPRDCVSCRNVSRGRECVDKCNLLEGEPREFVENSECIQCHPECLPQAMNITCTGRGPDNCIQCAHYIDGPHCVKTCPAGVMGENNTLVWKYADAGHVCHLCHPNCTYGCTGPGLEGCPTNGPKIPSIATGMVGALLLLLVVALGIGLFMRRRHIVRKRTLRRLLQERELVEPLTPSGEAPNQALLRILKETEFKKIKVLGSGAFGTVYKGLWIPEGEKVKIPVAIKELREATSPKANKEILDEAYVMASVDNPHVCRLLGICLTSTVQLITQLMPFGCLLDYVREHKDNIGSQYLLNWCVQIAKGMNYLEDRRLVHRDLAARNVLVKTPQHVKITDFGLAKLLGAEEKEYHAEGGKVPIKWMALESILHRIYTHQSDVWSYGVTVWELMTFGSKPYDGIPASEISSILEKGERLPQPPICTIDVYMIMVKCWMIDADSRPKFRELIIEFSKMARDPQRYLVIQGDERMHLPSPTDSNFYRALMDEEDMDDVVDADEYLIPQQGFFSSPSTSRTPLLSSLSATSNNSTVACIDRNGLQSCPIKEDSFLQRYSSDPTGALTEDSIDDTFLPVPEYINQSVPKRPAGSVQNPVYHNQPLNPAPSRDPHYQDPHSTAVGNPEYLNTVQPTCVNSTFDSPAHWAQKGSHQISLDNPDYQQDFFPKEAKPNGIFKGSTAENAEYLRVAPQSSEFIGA

In data set [1], `O=C(O)c1cn(C2CC2)c2cc(N3CCN(C(=S)c4ccc([N+](=O)[O-])cc4)CC3)c(F)cc2c1=O` gave an IC50 of 2.05 µM.
As to `COc1ccc(-c2cc(-c3ccc(N)cc3)nn2C(N)=S)cc1OC`, the IC50 is 0.00513 µM in data set [2] and 0.0205 µM in [3].
For the molecule `Cc1cc(C)c2c(n1)nn1c(C)c(C(=S)Nc3ccccc3)nnc21`, the IC50 in data set [4] was found to be 12.6 µM; in data set [5], 11.7 µM.
For `COc1ccc(C2=NN(C(N)=S)C(/C=C/c3ccccc3)C2)cc1` (configuration not stated), the IC50 in data set [6] was 22.4 µM.
On to `CN(C)c1ccc(C2CC(c3cccs3)=NN2C(N)=S)cc1` (configuration not stated), for which the IC50 in data set [7] turned out to be 632 ng/mL (≈ 1910 nM).
In turn, `COc1cc(C2CC(c3ccccc3)=NN2C(N)=S)cc(OC)c1OC` (configuration not stated) displayed a GI50 in [8] of 0.15 µM.
As for `FC(F)(F)c1ccc(NC(=S)N2CCc3ccccc3C2)cc1`, inhibition in data set [1] was half-maximal at 11.2 µM (IC50).
For `CCCCCCCCCCCCCC(=S)NCCCCC(NC(=O)OCc1ccccc1)C(=O)Nc1ccccc1` (configuration not stated), the IC50 in data set [9] and in data set [10] was more than 200 µM each time.
`COc1ccc(NC(=S)N2CCc3ccccc3C2)cc1` gave an IC50 in data set [1] of 11.2 µM.
Take `NC(=S)N1N=C(c2ccccc2)CC1/C=C/c1ccccc1` (configuration not stated): the IC50 turned out to be 4.53 µM in data set [6] and 0.34 µM in data set [11].
In the case of `COc1ccc(C2=NN(C(N)=S)C(c3ccc(Cl)cc3)C2)cc1` (configuration not stated), the IC50 is 6.08 µM in [12], 9.37 µM in data set [13], 8.5 µM in data set [14] and 5.89 µM in data set [15].
In turn, `CCCCCCCCCCCCNC(=S)NCCCC[C@H](NS(C)(=O)=O)C(=O)N[C@H](C)C(=O)NCCCCNC(=N)N` registered an IC50 in data set [16] of 0.1 µM. The same molecule came in with a half-life in [17] of less than 2 h.
In data set [18], `COc1ccc(F)c2[nH]c(C(=O)N[C@@H](CC(C)C)C(=O)N[C@@H](C[C@@H]3CCNC3=O)C(=O)c3nc4c(F)cccc4s3)cc12` had an EC50 of 0.29 µM.
In data set [1], `O=C(O)c1cn(C2CC2)c2cc(N3CCN(C(=S)c4cccc([N+](=O)[O-])c4)CC3)c(F)cc2c1=O` registered an IC50 of 5.87 µM.
For the molecule `COc1ccc(C2=NN(C(N)=O)C(/C=C/c3ccccc3)C2)cc1` (configuration not stated), the IC50 in data set [6] came out at 37.7 µM.
With `O=C(C(=S)N1CCOCC1)c1ccc(Cl)cc1`, the values for the IC50 in data set [19], in data set [20] and in [21] were 6.6 µM, 15.5 µM and more than 100 µM, respectively.
As for `NC(=O)N1N=C(c2ccc(Cl)cc2)CC1/C=C/c1ccccc1` (configuration not stated), the IC50 in data set [6] came to 15.1 µM.
In data set [1], `Cc1cccc(C)c1NC(=S)N1CCc2ccccc2C1` displayed an IC50 of 11.2 µM.
With `NC(=S)N1N=C(c2ccc(Cl)cc2)CC1/C=C/c1ccccc1` (configuration not stated), in [6], the IC50 is 7.18 µM.
On to `Cc1cc(C)nc(NC(=S)N2CCN(Cc3ccc(C(F)(F)F)cc3)CC2)c1`, for which the IC50 in data set [21] came out at 8 µM. The AUClast in data set [22] was determined as 147 µg·h/mL.
With `COc1ccc2ccc3c(c2c1)C(c1c(F)cccc1F)C(C(N)=S)=C(N)O3` (configuration not stated), the results for the IC50 in data set [23], in [24] and in data set [25] were 5.4 µM, 4.5 µM and 1.1 µM, respectively.
Take `NC(=O)N1N=C(c2ccccc2)CC1/C=C/c1ccccc1` (configuration not stated): the IC50 in [6] was 19.1 µM.
On to `O=C(O)c1cn(C2CC2)c2cc(N3CCN(C(=S)c4cccc(F)c4)CC3)c(F)cc2c1=O`, for which the MIC50 in data set [26], in data set [27] and in data set [28] was less than 3 ng/mL throughout. Inhibition in data set [1] was half-maximal at 4.08 µM (IC50).
Take `COc1ccc(F)c2[nH]c(C(=O)N[C@@H](CC(C)C)C(=S)N[C@@H](C[C@@H]3CCNC3=O)C(=O)c3nc4c(F)cccc4s3)cc12`: the response in [18] was half-maximal at 0.34 µM (EC50).
Regarding `CN(C)c1ccc(C2CC(c3ccc(Cl)cc3)=NN2C(N)=S)cc1` (configuration not stated), the IC50 in data set [29] turned out to be 13.5 µM; in data set [30], 17.5 µM.
Consider `COc1cc(-c2cc(-c3ccc(N)cc3)nn2C(N)=S)cc(OC)c1OC`, for which the IC50 in data set [2] came out at 0.0122 µM.
Molecule `CCCCCCCCCCCCCC(=S)NCCCC[C@H](NS(C)(=O)=O)C(=O)N[C@H](C)C(=O)NCCCCNC(=N)N` returned an IC50 in data set [16] of 0.09 µM. The half-life in data set [17] is more than 2 h.
`COc1cccc2[nH]c(C(=O)N[C@@H](CC(C)C)C(=O)N[C@@H](C[C@@H]3CCNC3=O)C(=O)c3nc4ccccc4s3)cc12`: the EC50 in data set [18] worked out at 0.29 µM.
Take `CC(C)(C)[C@H](NC(=O)C(F)(F)F)C(=O)N1C[C@H]2[C@@H]([C@H]1C(=O)N[C@H](C#N)C[C@H]1CCNC1=O)C2(C)C`: the EC50 in data set [18] stood at 0.94 µM.
Regarding `CCCCCCCCCCCCCC(=O)NCCCCC(NC(=O)OCc1ccccc1)C(=O)Nc1ccccc1` (configuration not stated), the IC50 in data set [31], in data set [32], in [9] and in [10] was more than 200 µM in each case.
For `O=[N+]([O-])c1ccc(N2CCN(C(=S)NCc3nc4ccccc4s3)CC2)cc1`, the inhibition in [33] worked out at 67%.
